In patent US12338243B2, “P2X7 modulators” (JANSSEN PHARMACEUTICA NV, priority 2014, dated 2025):
Where “and” joins values, the source holds several entries; their conditions need not be identical. Identical values can stand only once.

Tests used:
[1] = Rat plasma radiometabolite analysis; format: in vivo; conditions: 30 min after radiotracer injection, n=2
Protocol: (§1) HPLC analysis was performed on a LaChrom Elite HPLC system (Hitachi, Armstadt, Germany) connected to a UV spectrometer set at 220 nm. For the analysis of radiolabeled compounds, the HPLC eluate, after passage through the UV detector, was led over a shielded 3-inch NaI(Tl) scintillation detector connected to a multichannel analyser (Gabi box, Raytest, Straubenhardt, Germany). The output signal was recorded and analysed using a GINA Star data acquisition system (Raytest, Straubenhardt, Germany). Radioactivity in samples of biodistribution studies, cell uptake experiments and radiometabolite analysis was quantified using an automated gamma counter equipped with a 3-inch NaI(Tl) well crystal coupled to a multichannel analyser (Wallac 2480 Wizard, Wallac, Turku, Finland). Results were corrected for background radiation, physical decay and counter dead time.
Radiometabolites of [^11C]55 in plasma of normal female Wistar rats (n=2) were quantified at 30 min after tracer injection. […] The fraction of more lipophilic radiometabolites eluting after the intact tracer was negligible (<1.5%).

[2] = Biodistribution studies of radiotracer in healthy female Wistar rats; format: in vivo; conditions: for % ID blood: blood mass assumed 7% of body mass; for SUV blood / % ID carcass / % ID cerebellum / SUV cerebellum / % ID cerebrum / SUV cortex / % ID heart / SUV hippocampus / % ID intestines / % ID kidneys / % ID liver / % ID lungs / SUV rest of cerebrum / % ID spleen + pancreas / % ID stomach / SUV striatum / % ID urine / SUV whole cerebrum: mean ± SD, n = 3
Protocol: as §1
Animals were housed in individually ventilated cages in a thermoregulated (˜22° C.), humidity-controlled facility under a 12 h/12 h light/dark cycle with access to food and water ad libitum. All animal experiments were conducted according to the Belgian code of practice for the care and use of animals, after approval from the KU Leuven University Ethics Committee for Animals.
The biodistribution studies were performed in healthy female Wistar rats (body weight, 185-220 g) at 2, 30 and 60 min after tracer injection (n=3/time point). […] The animals were sacrificed by decapitation at the indicated time points. Blood and major organs were collected in tared tubes and weighed. The radioactivity in the dissected organs and blood was counted using an automated gamma counter. For calculation of total blood radioactivity, blood mass was assumed to be 7% of the body mass.

SMILES: C[C@H]1Cn2c(nnc2-c2cc(O[11CH3])ccn2)CN1C(=O)c1cccc(Cl)c1Cl [[^11C]55, (S)-(2,3-dichlorophenyl)(3-(4-[^11C]methoxypyridin-2-yl)-6-methyl-5,6-dihydro-[1,2,4]triazolo[4,3-a]pyrazin-7(8H)-yl)methanone]
- recovered radioactivity in the plasma in the form of intact tracer [1]: 70±6%
- % ID blood ([2]; 2 min after tracer injection): 10.0 % ID and 10.0 ± 2.4 % ID
- SUV blood ([2]; 2 min after tracer injection): 1.42 ± 0.3
- % ID blood ([2]; 30 min after tracer injection): 5.2 ± 0.6 % ID
- SUV blood ([2]; 30 min after tracer injection): 0.74 ± 0.1
- % ID blood ([2]; 60 min after tracer injection): 5.3 % ID and 5.3 ± 0.6 % ID
- SUV blood ([2]; 60 min after tracer injection): 0.75 ± 0.1
- % ID carcass ([2]; 2 min after tracer injection): 35.1 ± 4.1 % ID
- % ID carcass ([2]; 30 min after tracer injection): 46.9 ± 0.5 % ID
- % ID carcass ([2]; 60 min after tracer injection): 43.2 ± 5.3 % ID
- % ID cerebellum ([2]; 2 min after tracer injection): 0.1 ± 0.0 % ID
- SUV cerebellum ([2]; 2 min after tracer injection): 1.02 ± 0.1
- % ID cerebellum ([2]; 30 min after tracer injection): 0.1 ± 0.0 % ID
- SUV cerebellum ([2]; 30 min after tracer injection): 0.53 ± 0.0
- % ID cerebellum ([2]; 60 min after tracer injection): 0.1 ± 0.0 % ID
- SUV cerebellum ([2]; 60 min after tracer injection): 0.59 ± 0.1
- % ID cerebrum ([2]; 2 min after tracer injection): 0.5 ± 0.0 % ID
- % ID cerebrum ([2]; 30 min after tracer injection): 0.3 ± 0.0 % ID
- % ID cerebrum ([2]; 60 min after tracer injection): 0.3 ± 0.1 % ID
- SUV cortex ([2]; 2 min after tracer injection): 0.80 ± 0.2
- SUV cortex ([2]; 30 min after tracer injection): 0.58 ± 0.1
- SUV cortex ([2]; 60 min after tracer injection): 0.65 ± 0.1
- % ID heart ([2]; 2 min after tracer injection): 1.3 ± 0.2 % ID
- % ID heart ([2]; 30 min after tracer injection): 0.4 ± 0.0 % ID
- % ID heart ([2]; 60 min after tracer injection): 0.4 ± 0.1 % ID
- SUV hippocampus ([2]; 2 min after tracer injection): 0.74 ± 0.0
- SUV hippocampus ([2]; 30 min after tracer injection): 0.43 ± 0.0
- SUV hippocampus ([2]; 60 min after tracer injection): 0.52 ± 0.1
- % ID intestines ([2]; 2 min after tracer injection): 14.0 ± 1.8 % ID
- % ID intestines ([2]; 30 min after tracer injection): 23.8 ± 1.1 % ID
- % ID intestines ([2]; 60 min after tracer injection): 26.7 ± 9.1 % ID
- % ID kidneys ([2]; 2 min after tracer injection): 4.5 ± 0.8 % ID
- % ID kidneys ([2]; 30 min after tracer injection): 1.9 ± 0.1 % ID
- % ID kidneys ([2]; 60 min after tracer injection): 1.8 ± 0.2 % ID
- injected dose retained in the liver and the intestines ([2]; liver and intestines, 60 min after tracer injection): 43.8%
- % ID liver ([2]; 2 min after tracer injection): 34.8 ± 2.1 % ID
- % ID liver ([2]; 30 min after tracer injection): 19.4 ± 0.5 % ID
- % ID liver ([2]; 60 min after tracer injection): 17.1 ± 0.3 % ID
- % ID lungs ([2]; 2 min after tracer injection): 2.1 ± 0.3 % ID
- % ID lungs ([2]; 30 min after tracer injection): 1.0 ± 0.1 % ID
- % ID lungs ([2]; 60 min after tracer injection): 1.1 ± 0.4 % ID
- SUV rest of cerebrum ([2]; 2 min after tracer injection): 0.86 ± 0.0
- SUV rest of cerebrum ([2]; 30 min after tracer injection): 0.46 ± 0.0
- SUV rest of cerebrum ([2]; 60 min after tracer injection): 0.53 ± 0.1
- % ID spleen + pancreas ([2]; 2 min after tracer injection): 1.4 ± 0.4 % ID
- % ID spleen + pancreas ([2]; 30 min after tracer injection): 0.6 ± 0.1 % ID
- % ID spleen + pancreas ([2]; 60 min after tracer injection): 0.6 ± 0.1 % ID
- % ID stomach ([2]; 2 min after tracer injection): 1.7 ± 0.3 % ID
- % ID stomach ([2]; 30 min after tracer injection): 2.1 ± 1.0 % ID
- % ID stomach ([2]; 60 min after tracer injection): 5.1 ± 3.4 % ID
- SUV striatum ([2]; 2 min after tracer injection): 0.78 ± 0.0
- SUV striatum ([2]; 30 min after tracer injection): 0.45 ± 0.0
- SUV striatum ([2]; 60 min after tracer injection): 0.50 ± 0.1
- total initial brain uptake ([2]; total brain, 2 min after injection): 0.6%
- total brain uptake ([2]; total brain, 60 min after tracer injection): 0.4%
- % ID in urine and kidneys ([2]; urine and kidneys, 60 min after injection): 2.9 % ID
- % ID urine ([2]; 2 min after tracer injection): 0.1 ± 0.1 % ID
- % ID urine ([2]; 30 min after tracer injection): 0.9 ± 0.0 % ID
- % ID urine ([2]; 60 min after tracer injection): 1.1 ± 0.5 % ID
- SUV whole cerebrum ([2]; 2 min after tracer injection): 0.83 ± 0.0
- SUV whole cerebrum ([2]; 30 min after tracer injection): 0.46 ± 0.0
- SUV whole cerebrum ([2]; 60 min after tracer injection): 0.54 ± 0.1
